Values quoted from earlier work, collected in patent publication US20040006100A1, “Monotherapy for the treatment of parkinson's disease with cyclooxygenase-2 (COX 2) inhibitor(S)” (priority 2002, published 2004).

N[C@@H](Cc1ccc(O)c(O)c1)C(=O)O [levodopa]
fraction of levodopa that reaches the brain (levodopa alone administered orally): about 1% | fraction of orally administered levodopa metabolized by decarboxylase and then unable to cross the BBB (oral administration, without carbidopa): Up to 99%
